Key:
hCA VII = target: T1, hCA VII (Homo sapiens, UniProt P43166); assay type: biochemical
T1 construct: gene CA7; recombinant

hCA I = target: T2, hCA I (Homo sapiens, UniProt P00915); assay type: biochemical
T2 construct: gene CA1; recombinant

VchCAγ = target: T3, VchCAγ; assay type: biochemical, Vibrio cholerae; conditions: CO2 […], […] TRIS pH […] Na2SO4, […] °C, […] min preincubation
T3 construct: gene VchCAgamma

MgCA = target: T4, MgCA (Malassezia globosa, UniProt A8Q1N3); assay: biochemical
T4 construct: gene MGL_1814
T4 sequence (A8Q1N3 1-241): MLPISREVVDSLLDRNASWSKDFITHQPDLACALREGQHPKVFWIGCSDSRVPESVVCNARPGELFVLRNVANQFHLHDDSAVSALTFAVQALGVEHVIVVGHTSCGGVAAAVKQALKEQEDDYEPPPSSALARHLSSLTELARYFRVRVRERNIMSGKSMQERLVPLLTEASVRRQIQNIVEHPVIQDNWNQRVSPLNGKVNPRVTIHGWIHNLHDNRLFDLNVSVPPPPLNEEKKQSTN

hCA II = target: T5, hCA II (Homo sapiens, UniProt P00918); assay type: biochemical
T5 construct: gene CA2; recombinant

VchCAβ = target: T6, VchCAβ (Vibrio cholerae, UniProt A0A086SLX8); assay type: biochemical; conditions: read-out: VchCAβ; CO2 […], […] TRIS pH […] Na2SO4, […] °C, […] min preincubation
T6 construct: gene can
T6 sequence (A0A086SLX8 1-222): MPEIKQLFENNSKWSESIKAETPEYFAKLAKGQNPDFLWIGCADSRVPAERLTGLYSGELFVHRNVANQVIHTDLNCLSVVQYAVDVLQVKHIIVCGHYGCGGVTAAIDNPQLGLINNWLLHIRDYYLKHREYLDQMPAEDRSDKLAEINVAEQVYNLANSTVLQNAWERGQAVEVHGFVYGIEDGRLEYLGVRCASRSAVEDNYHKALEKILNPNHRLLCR

T1 sequence (P43166 whole entry): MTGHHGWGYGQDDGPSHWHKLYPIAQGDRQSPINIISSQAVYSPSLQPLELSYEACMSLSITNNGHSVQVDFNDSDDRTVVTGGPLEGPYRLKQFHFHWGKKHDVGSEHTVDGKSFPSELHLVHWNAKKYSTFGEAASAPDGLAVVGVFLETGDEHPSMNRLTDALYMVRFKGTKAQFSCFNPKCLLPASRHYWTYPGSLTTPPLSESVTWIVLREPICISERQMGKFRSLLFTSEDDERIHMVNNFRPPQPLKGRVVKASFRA
T2 sequence (P00915 2-261): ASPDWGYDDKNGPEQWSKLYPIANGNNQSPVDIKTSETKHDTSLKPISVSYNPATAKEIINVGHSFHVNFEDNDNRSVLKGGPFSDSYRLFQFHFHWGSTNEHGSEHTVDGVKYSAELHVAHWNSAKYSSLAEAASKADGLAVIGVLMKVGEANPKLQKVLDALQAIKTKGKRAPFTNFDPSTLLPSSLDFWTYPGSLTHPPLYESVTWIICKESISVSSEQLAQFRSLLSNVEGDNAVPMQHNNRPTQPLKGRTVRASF

SMILES	Ki (hCA VII)	Ki (hCA I)	Ki (VchCAγ)	Ki (MgCA)	Ki (hCA II)	Ki (VchCAβ)
NS(=O)(=O)c1ccc(C(=O)N2CCOCC2)cc1 [3d, 4-(Morpholine-4-Carbonyl)Benzenesulfonamide]	0.8 nM	8.7 nM	693 nM	5880 nM	6.2 nM	8590 nM
COC(=O)[C@H](Cc1ccccc1)NC(=O)c1ccc(S(N)(=O)=O)cc1 [3l, Methyl (4-Sulfamoylbenzoyl)-L-Phenylalaninate]	0.5 nM	5.6 nM	409 nM	517 nM	3.3 nM	663 nM
COC(=O)C(C)NC(=O)c1ccc(S(N)(=O)=O)cc1 (racemic) [3j, Methyl (4-Sulfamoylbenzoyl)-DL-Alaninate]	3.7 nM	85.3 nM	271 nM	87.3 nM	6.1 nM	412 nM
NS(=O)(=O)c1ccc(C(=O)N2CCCCC2)cc1 [3e, 4-(Piperidine-1-Carbonyl)Benzenesulfonamide]			453 nM	3980 nM		749 nM
COC(=O)C(NC(=O)c1ccc(S(N)(=O)=O)cc1)C(C)C (racemic) [3f, Methyl (4-Sulfamoylbenzoyl)-DL-Valinate]	3.7 nM	57.8 nM	4460 nM	5500 nM	4.5 nM	8170 nM
CCNC(=O)c1ccc(S(N)(=O)=O)cc1 [3a, N-Ethyl-4-Sulfamoylbenzamide]	26.7 nM	334 nM	929 nM	7670 nM	5.3 nM	7080 nM
COC(=O)C[C@@H](NC(=O)c1ccc(S(N)(=O)=O)cc1)C(=O)OC [3i, Dimethyl (4-Sulfamoylbenzoyl)-D-Aspartate]	0.7 nM	75.7 nM	744 nM	6950 nM	6.1 nM	910 nM
CCOC(=O)CCCNC(=O)c1ccc(S(N)(=O)=O)cc1 [3k, Ethyl 4-(4-Sulfamoylbenzamido)Butanoate]	0.4 nM	5.3 nM	756 nM	6690 nM	4 nM	953 nM
CCCNC(=O)c1ccc(S(N)(=O)=O)cc1 [3b, N-Propyl-4-Sulfamoylbenzamide]	0.4 nM	8.2 nM	636 nM	3920 nM	3.5 nM	7680 nM
COC(=O)[C@H](CC(C)C)NC(=O)c1ccc(S(N)(=O)=O)cc1 [3h, Methyl (4-Sulfamoylbenzoyl)-L-Leucinate]	0.4 nM	5.6 nM	891 nM	763 nM	3.7 nM	719 nM
C#CCNC(=O)c1ccc(S(N)(=O)=O)cc1 [3c, N-(Prop-2-Yn-1-Yl)-4-Sulfamoylbenzamide]	0.6 nM		383 nM	5780 nM		741 nM
COC(=O)CC[C@@H](NC(=O)c1ccc(S(N)(=O)=O)cc1)C(=O)OC [3g, Dimethyl (4-Sulfamoylbenzoyl)-D-Glutamate]	0.6 nM	8.2 nM	503 nM	632 nM	5.2 nM	862 nM

Reference: PMC6027465, “Benzamide-4-Sulfonamides Are Effective Human Carbonic Anhydrase I, II, VII, and IX Inhibitors” (Metabolites, 2018)
